# What was measured:
# [1] = Fluorescence response of probe to increasing hypochlorous acid concentration; details: 10 μM probe
# Experimental: Specifically, Compound HKOCl-3 is dissolved in 0.1 M phosphate buffer at pH 7.4 to form a 10 μM solution, with excitation and emission spectra at 490 nm and 527 nm, respectively. The 10 μM solution of compound HKOCl-3 is treated with hypochlorous acid at various concentrations.
# Specifically, compound HJ-3-279 is dissolved in 0.1 M phosphate buffer at pH 7.4 to form a 10 μM solution, with excitation and emission spectra at 490 nm and 527 nm, respectively. The 10 μM solution of Compound HJ-3-279 is treated with hypochlorous acid at various concentrations.
# Specifically, Compound BXY2142 is dissolved in 0.1 M phosphate buffer at pH 7.4 to form a 10 μM solution, with excitation and emission spectra at 530 nm and 557 nm, respectively. The 10 μM solution of Compound BXY2142 is treated with hypochlorous acid at various concentrations.
# Specifically, compound HJ-3-259 is dissolved in 0.1 M phosphate buffer at pH 7.4 to form a 10 μM solution, with excitation and emission spectra at 562 nm and 585 nm, respectively. The 10 μM solution of Compound HJ-3-259 is treated with hypochlorous acid at various concentrations.
# [2] = Reactivity of probe toward different ROS and RNS (HOCl selectivity); details: ONOO− 10 μM
# Experimental: The reactivity of compound HKOCl-3 is compared toward different reactive oxygen species (ROS) and reactive nitrogen species (RNS). Specifically, the 10 μM solution of compound HKOCl-3 is treated with various ROS and RNS. The concentration of highly reactive oxygen species (hydroxyl radical (^●OH), hypochlorous acid (HOCl), and peroxynitrite (ONOO^−)) is 10 μM. The concentration of ^1O2, O2^●−, ^●NO, ROO^●, TBHP and H2O2 is 100 μM.
# The reactivity of compound HJ-3-279 is compared toward different reactive oxygen species (ROS) and reactive nitrogen species (RNS). Specifically, the 10 μM solution of compound HJ-3-279 is treated with various ROS and RNS. The concentration of highly reactive oxygen species (hydroxyl radical (^●OH), hypochlorous acid (HOCl), and peroxynitrite (ONOO^−)) is 10 μM. The concentration of ^1O2, O2^●−, ^●NO, ROO^●, TBHP and H2O2 is 100 μM.
# The reactivity of compound BXY2142 is compared toward different reactive oxygen species (ROS) and reactive nitrogen species (RNS). Specifically, the 10 μM solution of compound BXY2142 is treated with various ROS and RNS. The concentration of highly reactive oxygen species (hydroxyl radical (^●OH), hypochlorous acid (HOCl), and peroxynitrite (ONOO^−)) is 10 μM. The concentration of […], ^●NO, ROO^●, TBHP and H2O2 is 100 μM.
# The reactivity of compound HJ-3-259 is compared with different reactive oxygen species (ROS) and reactive nitrogen species (RNS). Specifically, the 10 μM solution of compound HJ-3-259 is treated with various ROS and RNS. The concentration of highly reactive oxygen species (hydroxyl radical (^●OH), hypochlorous acid (HOCl), and peroxynitrite (ONOO^−)) is 10 μM. The concentration of ^1O2, O2^●−, ^●NO, ROO^●, TBHP and H2O2 is 100 μM.
# [3] = Reactivity of probe toward different ROS, RNS, FeCl2, FeCl3 and TCBQ (hydroxyl radical selectivity); details: 5 μM probe, •OH, HOCl, ONOO−, FeCl2, FeCl3, TCBQ 5 μM, other ROS/RNS 50 μM, especially TCBQ/H2O2 system
# Experimental: The reactivity of compound HYY166 is tested toward different reactive oxygen species (ROS), reactive nitrogen species (RNS), FeCl2, FeCl3 and TCBQ. Specifically, the 5 μM solution of compound HYY166 is treated with various ROS and RNS. The concentration of highly reactive oxygen species (hydroxyl radical (^●OH), hypochlorous acid (HOCl), and peroxynitrite (ONOO^−)), FeCl2, FeCl3 and TCBQ is 5 μM. The concentration of ^1O2, O2^●−, ^●NO, ROO^●, TBHP and H2O2 is 50 μM.
# The reactivity of compound HKOH-1 is compared toward different reactive oxygen species (ROS), reactive nitrogen species (RNS), FeCl2, FeCl3 and TCBQ. Specifically, the 5 μM solution of compound HKOH-1 is treated with various ROS and RNS. The concentration of highly reactive oxygen species (hydroxyl radical (^●OH), hypochlorous acid (HOCl), and peroxynitrite (ONOO^−)), FeCl2, FeCl3 and TCBQ is 5 μM. The concentration of ^1O2, O2^●−, ^●NO, ROO^●, TBHP and H2O2 is 50 μM.
# [4] = Fluorescence response of probe to hydroxyl radical source (Fenton reagent; TCBQ/H2O2); details: 5 μM probe, 0.1 M phosphate buffer pH 7.4, Fenton reagent or TCBQ/H2O2 (H2O2 10:1)
# Experimental: Specifically, compound HYY166 is dissolved in 0.1 M phosphate buffer at pH 7.4 to form a 5 μM solution, with excitation and emission spectra at 490 nm and 520 nm, respectively. The 5 μM solution of compound HYY166 is treated with hydroxyl radical generated from different hydroxyl radical source: (1) Fenton reagent ([H2O2]:[FeCl2]=10:1); (2) Tetrachloro-1,4-benzoquinone (TCBQ)/H2O2 ([H2O2]:[TCBQ]=10:1) system.
# Specifically, compound HKOH-1 is dissolved in 0.1 M phosphate buffer at pH 7.4 to form a 5 μM solution, with excitation and emission spectra at 504 nm and 525 nm, respectively. The 5 μM solution of compound HKOH-1 is treated with hydroxyl radical generated from different hydroxyl radical source: (1) Fenton reagent ([H2O2]:[FeCl2]=10:1); (2) Tetrachloro-1,4-benzoquinone (TCBQ)/H2O2 ([H2O2]:[TCBQ]=10:1) system.
# [5] = 10 μM probe, •OH, 1O2, O2•−, •NO, ROO•, TBHP, H2O2 100 μM, excitation 490 nm, emission 527 nm
# [6] = 0.1 M phosphate buffer pH 7.4, excitation 490 nm, emission 527 nm
# [7] = excitation 504 nm, emission 525 nm
# [8] = excitation 490 nm, emission 520 nm
smiles,measurement,setting,value
CCOC(=O)CCCN1c2cc3c(cc2C(C)CC1(C)C)C1(OC(=O)c2ccccc21)c1ccc(Oc2cc(Cl)c(O)c(Cl)c2)cc1O3 (stereo not shown) [BXY2142],fluorescence intensity on treatment with hypochlorous acid at various concentrations,"[1]; 0.1 M phosphate buffer pH 7.4, excitation 530 nm, emission 557 nm",increases with increasing concentration of hypochlorous acid
O=C1OC2(c3cc(Cl)c(O)cc3Oc3cc(Oc4cc(Cl)c(O)c(Cl)c4)c(Cl)cc32)c2ccccc21 (stereo not shown) [HJ-3-279],increase in fluorescence intensity with hypochlorous acid versus other ROS and RNS,[2]; [5],much higher increase
same,fluorescence intensity on treatment with hypochlorous acid at various concentrations,[1]; [6],increases with increasing concentration of hypochlorous acid
O=C1OC2(c3ccc(O)cc3Oc3cc(Oc4cc(Cl)c(O)c(Cl)c4)ccc32)c2ccccc21 (stereo not shown) [HKOCl-3],increase in fluorescence intensity with hypochlorous acid versus other ROS and RNS,[2]; [5],much higher increase
same,increase in fluorescence intensity with hypochlorous acid versus other ROS and RNS,"[2]; 10 μM solution of BXY2142, •OH, other ROS/RNS 100 μM, excitation 530 nm, emission 557 nm",much higher increase
same,fluorescence intensity on treatment with hypochlorous acid at various concentrations,[1]; [6],increases with increasing concentration of hypochlorous acid
O=C1OC2(c3cc(Cl)c(O)cc3Oc3cc(Oc4cc(I)c(O)c(I)c4)c(Cl)cc32)c2ccccc21 (stereo not shown) [HKOH-1],increase in fluorescence intensity with hydroxyl radical versus other ROS and RNS,[3]; [7],much higher increase
same,fluorescence intensity on treatment with hydroxyl radical source,[4]; [7],increases with increasing concentration of hydroxyl radical source
O=C1OC2(c3ccc(O)cc3Oc3cc(Oc4cc(I)c(O)c(I)c4)ccc32)c2ccccc21 (stereo not shown) [HYY166],increase in fluorescence intensity with hydroxyl radical versus other ROS and RNS,[3]; [8],much higher increase
same,fluorescence intensity on treatment with hydroxyl radical source,[4]; [8],increases with increasing concentration of hydroxyl radical source

# Reference: patent US10684294B2, “Diarylether-based fluorogenic probes for detection of hypochlorous acid or hydroxyl radical” (THE UNIVERSITY OF HONG KONG, priority 2015, dated 2020)
